Results: ChEMBL document CHEMBL1909046, “DrugMatrix in vitro pharmacology data”

Columns and labels:
[1] = target: Prostaglandin G/H synthase 1 (Homo sapiens, UniProt P23219); test: biochemical; assay type: tissue-based, Platelet;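 further: inhibition of COX-1 enzyme activity, with arachidonic acid supplied as substrate; in other assays of this panel Not Active means under 50% inhibition at 10 µM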
[2] = DRUGMATRIX: beta-Lactamase enzyme inhibition (substrate: Nitrocefin); set-up: species or system Bacillus cereus; conditions: Not Active = under 50% inhibition at 10 µM
[3] = target: 5-hydroxytryptamine receptor 6 (Homo sapiens, UniProt P50406); assay type: cell membranes, HeLa, Membrane; further: in other assays of this panel Not Active means under 50% inhibition at 10 µM
[4] = DRUGMATRIX: ATPase, Na+/K+ enzyme inhibition (substrate: ATP); assay type: tissue-based, Sus scrofa, Heart; conditions: Not Active = under 50% inhibition at 10 µM
[5] = DRUGMATRIX: Tumor Necrosis Factor (TNF), Non-Selective radioligand binding (ligand: [125I] TNF-alpha); assay type: cell membranes, Membrane; conditions: u-937; Not Active = under 50% inhibition at 10 µM
[6] = target: T1, 5-hydroxytryptamine receptor 2C (Homo sapiens, UniProt P28335); test: DRUGMATRIX: Serotonin (5-Hydroxytryptamine) 5-HT2C radioligand binding (ligand: [3H] Mesulergine); assay type: cell membranes, CHO-K1, Membrane; conditions: Not Active = under 50% inhibition at 10 µM
T1 sequence (P28335 whole entry): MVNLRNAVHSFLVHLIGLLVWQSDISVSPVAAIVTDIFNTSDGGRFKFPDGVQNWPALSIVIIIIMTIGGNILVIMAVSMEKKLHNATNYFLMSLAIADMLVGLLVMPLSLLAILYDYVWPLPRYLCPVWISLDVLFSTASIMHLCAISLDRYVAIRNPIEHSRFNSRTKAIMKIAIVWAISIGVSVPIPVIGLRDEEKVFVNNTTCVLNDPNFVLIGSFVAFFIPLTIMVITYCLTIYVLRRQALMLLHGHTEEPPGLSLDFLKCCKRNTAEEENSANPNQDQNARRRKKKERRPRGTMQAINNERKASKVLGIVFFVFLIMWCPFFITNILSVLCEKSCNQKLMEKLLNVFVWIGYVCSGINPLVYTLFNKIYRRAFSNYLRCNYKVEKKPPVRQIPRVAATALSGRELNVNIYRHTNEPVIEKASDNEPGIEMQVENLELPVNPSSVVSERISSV

Chain of Prostaglandin G/H synthase 1 (P23219 whole entry): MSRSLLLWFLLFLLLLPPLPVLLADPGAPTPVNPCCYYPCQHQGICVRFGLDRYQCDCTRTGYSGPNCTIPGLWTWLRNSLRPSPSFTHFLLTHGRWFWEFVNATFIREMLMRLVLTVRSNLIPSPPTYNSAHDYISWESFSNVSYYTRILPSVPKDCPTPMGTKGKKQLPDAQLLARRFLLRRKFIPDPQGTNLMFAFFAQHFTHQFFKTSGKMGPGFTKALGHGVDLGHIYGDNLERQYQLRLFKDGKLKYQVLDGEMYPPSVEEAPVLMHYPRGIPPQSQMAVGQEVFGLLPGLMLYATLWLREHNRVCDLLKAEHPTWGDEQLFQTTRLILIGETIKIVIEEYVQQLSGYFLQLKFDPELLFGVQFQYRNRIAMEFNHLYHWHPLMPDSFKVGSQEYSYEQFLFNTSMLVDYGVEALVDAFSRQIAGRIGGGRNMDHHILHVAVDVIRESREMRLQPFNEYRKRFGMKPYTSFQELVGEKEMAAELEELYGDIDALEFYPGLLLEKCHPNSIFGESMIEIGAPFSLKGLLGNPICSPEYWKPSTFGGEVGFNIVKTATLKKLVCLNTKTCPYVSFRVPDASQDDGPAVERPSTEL
Chain of 5-hydroxytryptamine receptor 6 (P50406 whole entry): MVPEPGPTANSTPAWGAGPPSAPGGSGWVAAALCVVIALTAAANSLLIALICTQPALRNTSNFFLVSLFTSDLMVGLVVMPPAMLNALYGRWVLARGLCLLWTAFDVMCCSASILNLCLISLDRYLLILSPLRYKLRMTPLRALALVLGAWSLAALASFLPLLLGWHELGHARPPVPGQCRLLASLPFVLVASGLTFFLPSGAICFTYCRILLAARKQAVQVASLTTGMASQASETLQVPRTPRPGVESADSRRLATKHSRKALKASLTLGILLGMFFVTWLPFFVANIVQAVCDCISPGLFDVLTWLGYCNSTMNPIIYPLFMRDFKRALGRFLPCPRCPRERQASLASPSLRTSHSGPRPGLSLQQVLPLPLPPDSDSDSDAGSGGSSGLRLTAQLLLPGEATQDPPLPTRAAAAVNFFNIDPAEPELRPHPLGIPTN

Row | Molecule | IC50 ([1]; platelet) | IC50 [2] | Ki [2] | IC50 ([3]; hela) | IC50 [4] | Ki [4] | IC50 [5] | Ki [5] | IC50 ([6]; cho-k1) | IC50 ([3]; read-out: IC50) [nM] | Ki ([3]; read-out: Ki) [nM] | IC50 ([6]; read-out: IC50) [nM] | Ki ([6]; read-out: Ki) [nM] | Ki ([1]; platelet) | Ki ([3]; hela) | Ki ([6]; cho-k1) | IC50 ([1]; read-out: IC50) [µM] | IC50 ([2]; read-out: IC50) [nM]
1 | Cc1ccccc1N1C(=O)c2cc(S(N)(=O)=O)c(Cl)cc2NC1C (centres undefined) [METOLAZONE] | Not Active | Not Active | Not Active | Not Active | Not Active | Not Active | Not Active | Not Active | Not Active | – | – | – | – | – | – | – | – | –
2 | O=C1CC[C@@H](N2C(=O)c3ccccc3C2=O)C(=O)N1 | Not Active | Not Active | Not Active | Not Active | Not Active | Not Active | Not Active | Not Active | Not Active | – | – | – | – | – | – | – | – | –
3 | Nc1c(Br)cc(Br)cc1CN[C@H]1CC[C@H](O)CC1 [AMBROXOL] | Not Active | Not Active | Not Active | Not Active | Not Active | Not Active | Not Active | Not Active | Not Active | – | – | – | – | – | – | – | – | –
4 | Nc1nc2c(ncn2COCCO)c(=O)[nH]1 [ACYCLOVIR] | Not Active | Not Active | Not Active | Not Active | Not Active | Not Active | Not Active | Not Active | Not Active | – | – | – | – | – | – | – | – | –
5 | CN(C)CCCN1c2ccccc2Sc2ccccc21 [PROMAZINE] | Not Active | Not Active | Not Active | – | Not Active | Not Active | Not Active | Not Active | – | 274 | 127 | 99 | 52 | – | – | – | – | –
6 | CC1(C)O[C@@H]2C[C@H]3[C@@H]4CCC5=CC(=O)CC[C@]5(C)[C@@]4(F)[C@@H](O)C[C@]3(C)[C@]2(C(=O)CCl)O1 [HALCINONIDE] | Not Active | Not Active | Not Active | Not Active | Not Active | Not Active | Not Active | Not Active | Not Active | – | – | – | – | – | – | – | – | –
7 | CC1CC(OC(=O)C(O)c2ccccc2)CC(C)(C)C1 (centres undefined) [CYCLANDELATE] | Not Active | Not Active | Not Active | Not Active | Not Active | Not Active | Not Active | Not Active | Not Active | – | – | – | – | – | – | – | – | –
8 | LEAD (II) ACETATE | Not Active | Not Active | Not Active | Not Active | Not Active | Not Active | Not Active | Not Active | Not Active | – | – | – | – | Not Active | Not Active | Not Active | – | –
9 | Sc1ncnc2nc[nH]c12 [MERCAPTOPURINE ANHYDROUS] | – | Not Active | Not Active | Not Active | Not Active | Not Active | Not Active | Not Active | Not Active | – | – | – | – | – | – | – | 16.2 | –
10 | O=c1[nH]c(=O)n([C@H]2C[C@H](O)[C@@H](CO)O2)cc1I [IDOXURIDINE] | Not Active | Not Active | Not Active | Not Active | Not Active | Not Active | Not Active | Not Active | Not Active | – | – | – | – | – | – | – | – | –
11 | CC1(C)S[C@@H]2[C@H](NC(=O)Cc3ccccc3)C(=O)N2[C@H]1C(=O)O [PENICILLIN G] | Not Active | Not Active | Not Active | Not Active | Not Active | Not Active | Not Active | Not Active | Not Active | – | – | – | – | – | – | – | – | –
12 | CC1=C2C(=CO[C@H](C)[C@H]2C)C(O)=C(C(=O)O)C1=O [CITRININ] | Not Active | Not Active | Not Active | Not Active | Not Active | Not Active | Not Active | Not Active | Not Active | – | – | – | – | – | – | – | – | –
13 | Cc1c(C)c2c(c(C)c1O)CC[C@@](C)(CCC[C@H](C)CCC[C@H](C)CCCC(C)C)O2 [ALPHA-TOCOPHEROL] | Not Active | Not Active | Not Active | Not Active | Not Active | Not Active | Not Active | Not Active | Not Active | – | – | – | – | – | – | – | – | –
14 | O=C(O)CCCc1ccc(N(CCCl)CCCl)cc1 [CHLORAMBUCIL] | Not Active | Not Active | Not Active | Not Active | Not Active | Not Active | Not Active | Not Active | Not Active | – | – | – | – | – | – | – | – | –
15 | CC[C@@]1(O)C[C@H](O[C@H]2C[C@H](N(C)C)[C@H](O[C@H]3C[C@H](O)[C@H](O[C@H]4CCC(=O)[C@H](C)O4)[C@H](C)O3)[C@H](C)O2)c2c(cc3c(c2O)C(=O)c2c(O)cccc2C3=O)[C@H]1C(=O)OC [ACLARUBICIN] | Not Active | Not Active | Not Active | Not Active | Not Active | Not Active | Not Active | Not Active | Not Active | – | – | – | – | – | – | – | – | –
16 | CC(=O)O[C@@]12CO[C@@H]1C[C@H](O)[C@@]1(C)C(=O)[C@H](O)C3=C(C)[C@@H](OC(=O)[C@H](O)[C@@H](NC(=O)OC(C)(C)C)c4ccccc4)C[C@@](O)([C@@H](OC(=O)c4ccccc4)[C@H]21)C3(C)C.O.O.O [DOCETAXEL] | Not Active | Not Active | Not Active | Not Active | Not Active | Not Active | Not Active | Not Active | Not Active | – | – | – | – | – | – | – | – | –
17 | CC(C)CN(C[C@@H](O)[C@H](Cc1ccccc1)NC(=O)O[C@H]1CCOC1)S(=O)(=O)c1ccc(N)cc1 | Not Active | Not Active | Not Active | Not Active | Not Active | Not Active | Not Active | Not Active | Not Active | – | – | – | – | – | – | – | – | –
18 | C[C@](N)(Cc1ccc(O)c(O)c1)C(=O)O [METHYLDOPA] | Not Active | Not Active | Not Active | Not Active | Not Active | Not Active | Not Active | Not Active | Not Active | – | – | – | – | – | – | – | – | –
19 | Nc1nc(N)nc(-c2cc(Cl)ccc2Cl)n1.O=C(O)/C=C\C(=O)O [IRSOGLADINE MALEATE] | Not Active | Not Active | Not Active | Not Active | Not Active | Not Active | Not Active | Not Active | Not Active | – | – | – | – | – | – | – | – | –
20 | Nc1ncn([C@@H]2O[C@H](CO)[C@@H](O)[C@H]2O)c(=O)n1 [AZACITIDINE] | Not Active | Not Active | Not Active | Not Active | Not Active | Not Active | Not Active | Not Active | Not Active | – | – | – | – | – | – | – | – | –
21 | LIPOPOLYSACCHARIDE E. COLI O55:B5 | Not Active | – | – | Not Active | Not Active | Not Active | Not Active | Not Active | Not Active | – | – | – | – | Not Active | Not Active | Not Active | – | 38.7
22 | CCCCN1CCCC[C@H]1C(=O)Nc1c(C)cccc1C [LEVOBUPIVACAINE] | Not Active | Not Active | Not Active | Not Active | Not Active | Not Active | Not Active | Not Active | Not Active | – | – | – | – | – | – | – | – | –
23 | CC(C)C(=O)Nc1ccc([N+](=O)[O-])c(C(F)(F)F)c1 [FLUTAMIDE] | Not Active | Not Active | Not Active | – | Not Active | Not Active | Not Active | Not Active | Not Active | 17800 | 8270 | – | – | – | – | – | – | –
24 | CC(C)[C@H]1C(=O)N2CCC[C@H]2[C@]2(O)O[C@](NC(=O)[C@@H]3C=C4c5cccc6[nH]cc(c56)C[C@H]4N(C)C3)(C(C)C)C(=O)N12 [ERGOCORNINE] | Not Active | Not Active | Not Active | – | Not Active | Not Active | Not Active | Not Active | – | 15 | 7.09 | 104 | 55 | – | – | – | – | –
25 | CC(C)(Oc1ccc(Cl)cc1)C(=O)O [CLOFIBRIC ACID] | Not Active | Not Active | Not Active | Not Active | Not Active | Not Active | Not Active | Not Active | Not Active | – | – | – | – | – | – | – | – | –
26 | CCCC1O[C@@H]2C[C@H]3[C@@H]4CCC5=CC(=O)C=C[C@]5(C)[C@H]4[C@@H](O)C[C@]3(C)[C@]2(C(=O)CO)O1 (some centres undefined) [BUDESONIDE] | Not Active | Not Active | Not Active | Not Active | Not Active | Not Active | Not Active | Not Active | Not Active | – | – | – | – | – | – | – | – | –
27 | O=C(CCCN1CC=C(n2c(=O)[nH]c3ccccc32)CC1)c1ccc(F)cc1 [DROPERIDOL] | Not Active | Not Active | Not Active | Not Active | Not Active | Not Active | Not Active | Not Active | – | – | – | 454 | 238 | – | – | – | – | –
